Results reported in EP2818472A1, “Imidazo[4,5-c]pyridine and pyrrolo[3,2-c]pyridine compounds as G-protein-coupled receptor kinase 5 (GRK5) modulators” (Max-Planck-Gesellschaft zur Förderung der Wissenschaften …, priority 2013, dated 2014).

tested on: beta-TC6 cells; test: Insulin HTRF assay (relative activity Ar) in beta-TC6 cells; type: cell-based, mouse; conditions: Mus musculus, Beta-TC6, 4 h, insulin HTRF, supernatant of beta-TC6 cells, incubation with test compound at 37°C for 2, 3, 4h; read-out: Ar (relative activity)
Summary of the method: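 beta-TC6 cells (15k/well, seeded 24 or 48 h) washed, then exposed to compound in induction buffer (0.5% DMSO final) for 2, 3 or 4 h at 37°C.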

Question: Which Emax does the source give for `CNc1nc2cnc(Nc3cccc(C(F)(F)F)c3)cc2n1Cc1cccnc1` [Compound 765, N2-methyl-1-(3-pyridylmethyl)-N6-[3-(trifluoromethyl)phenyl]imidazo[4,5-c]pyridine-2,6-diamine] here?
Answer: 0 to 30%

Question: Which Emax does the source give for `CNc1nc2cnc(Nc3cc(OC)cc(C(F)(F)F)c3)cc2n1Cc1ccco1` [Compound 767, 1-(2-furylmethyl)-N6-[3-methoxy-5-(trifluoromethyl)phenyl]-N2-methyl-imidazo[4,5-c]pyridine-2,6-diamine] here?
Answer: 0 to 30%

Question: Which Emax does the source give for `CNc1nc2cnc(-c3cccc(NS(C)(=O)=O)c3)cc2n1-c1cccc(F)c1` [Compound 768, N-[3-[1-(3-fluorophenyl)-2-(methylamino)imidazo[4,5-c]pyridin-6-yl]phenyl]methanesulfonamide] here?
Answer: 0 to 30%

Question: With `Cn1c(NCCN2CCOCC2)nc2cnc(-c3cccc(F)c3)cc21` [Compound 769, 6-(3-fluorophenyl)-1-methyl-N-(2-morpholinoethyl)imidazo[4,5-c]pyridin-2-amine] as the molecule, how does the Emax read?
Answer: 0 to 30%

Question: With `COCCNc1nc2cnc(-c3ccccc3C)cc2n1C` [Compound 770, N-(2-methoxyethyl)-1-methyl-6-(o-tolyl)imidazo[4,5-c]pyridin-2-amine] as the molecule, how does the Emax read?
Answer: 0 to 30%

Question: For `CNc1nc2cnc(-c3cccc(C(=O)NCCN(C)C)c3)cc2n1-c1cccc(F)c1` [Compound 771, N-(2-dimethylaminoethyl)-3-[1-(3-fluorophenyl)-2-(methylamino)imidazo[4,5-c]pyridin-6-yl]benzamide], which Emax is on record?
Answer: 0 to 30%

Question: `CNc1nc2cnc(Nc3cccc(C(C)C)c3)cc2n1CCOC` [Compound 772, N6-(3-isopropylphenyl)-1-(2-methoxyethyl)-N2-methyl-imidazo[4,5-c]pyridine-2,6-diamine] was tested. Which Emax did it give?
Answer: 0 to 30%

Question: With `CNc1nc2cnc(Nc3ccc(OC(F)(F)F)cc3)cc2n1CCOC` [Compound 773, 1-(2-methoxyethyl)-N2-methyl-N6-[4-(trifluoromethoxy)phenyl]imidazo[4,5-c]pyridine-2,6-diamine] as the molecule, how does the Emax read?
Answer: 0 to 30%

Question: `Cc1ccc(-c2nc3ccncc3[nH]2)cc1` [Compound 774, 2-(p-tolyl)-3H-imidazo[4,5-c]pyridine] was tested. Which Emax did it give?
Answer: 0 to 30%

Question: With `Fc1ccc(-c2nc3ccncc3[nH]2)cc1` [Compound 775, 2-(4-fluorophenyl)-3H-imidazo[4,5-c]pyridine] as the molecule, how does the Emax read?
Answer: 0 to 30%

Question: For `Cn1nc(C(C)(C)C)cc1Nc1cc2c(cn1)ncn2Cc1ccco1` [Compound 776, N-(5-tert-butyl-2-methyl-pyrazol-3-yl)-1-(2-furylmethyl)imidazo[4,5-c]pyridin-6-amine], which Emax is on record?
Answer: 0 to 30%

Question: Which Emax does the source give for `CNc1nc2cnc(Nc3cc(C(F)(F)F)ccc3F)cc2n1Cc1ccco1` [Compound 777, N6-[2-fluoro-5-(trifluoromethyl)phenyl]-1-(2-furylmethyl)-N2-methyl-imidazo[4,5-c]pyridine-2,6-diamine] here?
Answer: 0 to 30%

Question: For `Cn1c(-c2ccc3ccccc3n2)nc2cnccc21` [Compound 778, 2-(1-methylimidazo[4,5-c]pyridin-2-yl)quinoline], which Emax is on record?
Answer: 0 to 30%

Question: For `CNc1nc2cnc(-c3ccccc3OC)cc2n1-c1ccccc1` [Compound 782, 6-(2-methoxyphenyl)-N-methyl-1-phenyl-imidazo[4,5-c]pyridin-2-amine], which Emax is on record?
Answer: 0 to 30%

Question: Which Emax does the source give for `CNc1nc2cnc(-c3cccc(N(C)C)c3)cc2n1-c1ccccc1` [Compound 783, 6-[3-(dimethylamino)phenyl]-N-methyl-1-phenyl-imidazo[4,5-c]pyridin-2-amine] here?
Answer: 0 to 30%

Question: How did the Emax turn out when `CNc1nc2cnc(-c3ccc(F)c(Cl)c3)cc2n1-c1ccccc1` [Compound 784, 6-(3-chloro-4-fluoro-phenyl)-N-methyl-1-phenyl-imidazo[4,5-c]pyridin-2-amine] was run?
Answer: 0 to 30%

Question: For `CNc1nc2cnc(-c3ccc(C(N)=O)cc3)cc2n1-c1ccccc1` [Compound 786, 4-[2-(methylamino)-1-phenyl-imidazo[4,5-c]pyridin-6-yl]benzamide], which Emax is on record?
Answer: 0 to 30%

Question: How did the Emax turn out when `CNc1nc2cnc(-c3cccnc3OC)cc2n1-c1ccccc1` [Compound 788, 6-(2-methoxy-3-pyridyl)-N-methyl-1-phenyl-imidazo[4,5-c]pyridin-2-amine] was run?
Answer: 30 to 50%

Question: With `CNc1nc2cnc(-c3ccc4c(c3)OCO4)cc2n1Cc1ccccc1` [Compound 791, 6-(1,3-benzodioxol-5-yl)-1-benzyl-N-methyl-imidazo[4,5-c]pyridin-2-amine] as the molecule, how does the Emax read?
Answer: 0 to 30%

Question: For `CNc1nc2cnc(-c3ccc(Cl)cc3)cc2n1Cc1ccccc1` [Compound 792, 1-benzyl-6-(4-chlorophenyl)-N-methyl-imidazo[4,5-c]pyridin-2-amine], which Emax is on record?
Answer: 30 to 50%

Question: How did the Emax turn out when `CNc1nc2cnc(-c3cccc(C(=O)NCCN(C)C)c3)cc2n1Cc1ccccc1` [Compound 793, 3-[1-benzyl-2-(methylamino)imidazo[4,5-c]pyridin-6-yl]-N-(2-dimethylaminoethyl)benzamide] was run?
Answer: 0 to 30%

Question: `CNc1nc2cnc(-c3cccc(C(=O)NCCO)c3)cc2n1Cc1ccccc1` [Compound 794, 3-[1-benzyl-2-(methylamino)imidazo[4,5-c]pyridin-6-yl]-N-(2-hydroxyethyl)benzamide] was tested. Which Emax did it give?
Answer: 0 to 30%

Question: For `CNc1nc2cnc(-c3ccc(O)c(OC)c3)cc2n1Cc1ccccc1` [Compound 797, 4-[1-benzyl-2-(methylamino)imidazo[4,5-c]pyridin-6-yl]-2-methoxy-phenol], which Emax is on record?
Answer: 30 to 50%

Question: With `CNc1nc2cnc(-c3ccoc3)cc2n1Cc1ccccc1` [Compound 798, 1-benzyl-6-(3-furyl)-N-methyl-imidazo[4,5-c]pyridin-2-amine] as the molecule, how does the Emax read?
Answer: 30 to 50%

Question: `CNc1nc2cnc(-c3ccc(NC(C)=O)cc3)cc2n1Cc1ccccc1` [Compound 799, N-[4-[1-benzyl-2-(methylamino)imidazo[4,5-c]pyridin-6-yl]phenyl]acetamide] was tested. Which Emax did it give?
Answer: 0 to 30%

Question: With `Cc1cccc(CNc2nc3cnc(-c4ccc(N(C)C)cc4)cc3n2C)c1` [Compound 802, 6-(4-dimethylaminophenyl)-1-methyl-N-(m-tolylmethyl)imidazo[4,5-c]pyridin-2-amine] as the molecule, how does the Emax read?
Answer: 50 to 100%

Question: With `Cc1cccc(CNc2nc3cnc(-c4ccc(S(C)(=O)=O)cc4)cc3n2C)c1` [Compound 806, 1-methyl-6-(4-methylsulfonylphenyl)-N-(m-tolylmethyl)imidazo[4,5-c]pyridin-2-amine] as the molecule, how does the Emax read?
Answer: 30 to 50%

Question: `COc1ccc(-c2cc3c(cn2)nc(NCc2cccc(C)c2)n3C)cc1` [Compound 807, 6-(4-methoxyphenyl)-1-methyl-N-(m-tolylmethyl)imidazo[4,5-c]pyridin-2-amine] was tested. Which Emax did it give?
Answer: 30 to 50%

Question: Which Emax does the source give for `COc1cc(-c2cc3c(cn2)nc(NCc2cccc(C)c2)n3C)ccc1O` [Compound 808, 2-methoxy-4-[1-methyl-2-(m-tolylmethylamino)imidazo[4,5-c]pyridin-6-yl]phenol] here?
Answer: 30 to 50%

Question: With `Cc1cccc(CNc2nc3cnc(-c4ccc(N)nc4)cc3n2C)c1` [Compound 811, 6-(6-amino-3-pyridyl)-1-methyl-N-(m-tolylmethyl)imidazo[4,5-c]pyridin-2-amine] as the molecule, how does the Emax read?
Answer: 30 to 50%

Question: `COc1cc(Nc2nc3cnc(-c4cccc(F)c4)cc3n2C)cc(OC)c1OC` [Compound 814, 6-(3-fluorophenyl)-1-methyl-N-(3,4,5-trimethoxyphenyl)imidazo[4,5-c]pyridin-2-amine] was tested. Which Emax did it give?
Answer: 0 to 30%

Question: How did the Emax turn out when `COc1ccc(OC)c(CCNc2nc3cnc(-c4ccc5c(c4)OCO5)cc3n2C)c1` [Compound 816, 6-(1,3-benzodioxol-5-yl)-N-[2-(2,5-dimethoxyphenyl)ethyl]-1-methyl-imidazo[4,5-c]pyridin-2-amine] was run?
Answer: 0 to 30%

Question: With `COc1ccc(OC)c(CCNc2nc3cnc(-c4cccc(O)c4)cc3n2C)c1` [Compound 820, 3-[2-[2-(2,5-dimethoxyphenyl)ethylamino]-1-methyl-imidazo[4,5-c]pyridin-6-yl]phenol] as the molecule, how does the Emax read?
Answer: 30 to 50%

Question: With `COc1ccc(OC)c(CCNc2nc3cnc(-c4cccc(C(N)=O)c4)cc3n2C)c1` [Compound 822, 3-[2-[2-(2,5-dimethoxyphenyl)ethylamino]-1-methyl-imidazo[4,5-c]pyridin-6-yl]benzamide] as the molecule, how does the Emax read?
Answer: 0 to 30%

Question: `COc1cccc(-c2cc3c(cn2)nc(NCCc2cc(OC)ccc2OC)n3C)c1` [Compound 823, N-[2-(2,5-dimethoxyphenyl)ethyl]-6-(3-methoxyphenyl)-1-methyl-imidazo[4,5-c]pyridin-2-amine] was tested. Which Emax did it give?
Answer: 30 to 50%

Question: How did the Emax turn out when `COc1ccc(OC)c(CCNc2nc3cnc(-c4cccc(NS(C)(=O)=O)c4)cc3n2C)c1` [Compound 825, N-[3-[2-[2-(2,5-dimethoxyphenyl)ethylamino]-1-methyl-imidazo[4,5-c]pyridin-6-yl]phenyl]methanesulfonamide] was run?
Answer: 0 to 30%

Question: `Cn1c(NCC2CC2)nc2cnc(-c3ccccc3)cc21` [Compound 826, N-(cyclopropylmethyl)-1-methyl-6-phenyl-imidazo[4,5-c]pyridin-2-amine] was tested. Which Emax did it give?
Answer: 30 to 50%

Question: For `CN(C)c1cccc(-c2cc3c(cn2)nc(NCC2CC2)n3C)c1` [Compound 828, N-(cyclopropylmethyl)-6-[3-(dimethylamino)phenyl]-1-methyl-imidazo[4,5-c]pyridin-2-amine], which Emax is on record?
Answer: 30 to 50%

Question: For `CNc1nc2cnc(-c3ccc(CO)cc3)cc2n1C` [Compound 830, [4-[1-methyl-2-(methylamino)imidazo[4,5-c]pyridin-6-yl]phenyl]methanol], which Emax is on record?
Answer: 30 to 50%

Question: `CNc1nc2cnc(-c3cccc(C(F)(F)F)c3)cc2n1C` [Compound 831, N,1-dimethyl-6-[3-(trifluoromethyl)phenyl]imidazo[4,5-c]pyridin-2-amine] was tested. Which Emax did it give?
Answer: 0 to 30%

Question: How did the Emax turn out when `Cn1c(NCc2ccccc2)nc2cnc(-c3ccccc3)cc21` [Compound 836, N-benzyl-1-methyl-6-phenyl-imidazo[4,5-c]pyridin-2-amine] was run?
Answer: 30 to 50%

same assay, conditions: insulin HTRF, supernatant of beta-TC6 cells, incubation with test compound at 37°C for 2, 3, 4h

Question: For `CNc1nc2cnc(-c3ccc(N(C)C)cc3)cc2n1-c1ccccc1` [Compound 781, 6-(4-dimethylaminophenyl)-N-methyl-1-phenyl-imidazo[4,5-c]pyridin-2-amine], which “Ar (relative activity)” value is on record?
Answer: +++ (50 % ≤ Ar < 100 %)

Question: With `CNc1nc2cnc(-c3ccc(CO)cc3)cc2n1-c1ccccc1` [Compound 785, [4-[2-(methylamino)-1-phenyl-imidazo[4,5-c]pyridin-6-yl]phenyl]methanol] as the molecule, how does the “Ar (relative activity)” value read?
Answer: + (0 % < Ar < 30 %)
